pIC50: −log10 of the molar value. Read-outs that look alike come from different tables or passages of the source.
How the values were obtained:
[1] = single subcutaneous administration, highest dose tested; cited from earlier work
[2] = after 8 weeks of treatment; cited from earlier work
[3] = 18 patients, 6-19 years of age; cited from earlier work
[4] = biological target: human NR1/NR2A (Homo sapiens (Human), UniProt Q05586+Q12879); experiment: NR2A antagonist activity: calcium influx (Fluo-4) assay in HEK293 cells; type: cell-based
Protocol: Activation of the NR2A or NR2B subtype of NMDA receptor with glutamate as an agonist and glycine co-agonist on these cells results in calcium influx, which can be monitored with fluorescent indicator Fluo-4.
For experiments, the cells were seeded onto poly-D-lysine-coated 96-well black plates with clear bottom (Corning) at a density of ˜50,000 cells/well. After overnight culture, the growth medium was removed from the wells and the cells were incubated at 37° C. for 60 minutes in Hanks buffer containing 4 μM fluo-4-AM (Invitrogen) and 0.1% bovine serum albumin (BSA). After dye-loading, the cells were washed three times with Hanks buffer and incubated for 10 minutes at room temperature with various concentrations of test compounds prepared in Hanks buffer with 0.1% BSA. The cell plates were placed onto an FDSS Cell fluorescence reader (Hamamatsu). After 20 seconds of reading background fluorescence, agonist glutamate at final 100 µM and co-agonist glycine at final 50 μM were added to the cells to activate the receptor, and the resulting fluorescence changes were recorded and quantified. Based on the changes in fluorescence intensity, the pharmacological effect of test compounds was analyzed and the IC50 values derived from a non-linear least squares fitting of the concentration-dependent response to a standard logistic equation using Prism (Graphpad Software, Inc.): Amplitude=Max Amplitude/(1+(IC50/[antagonist])^n).

[5] = biological target: hERG channel (Homo sapiens (Human), UniProt Q12809); experiment: hERG channel inhibition, whole cell patch clamp in HEK293 cells; type: cell-based; details: human, HEK293 cells stably expressing hERG channel, pH 7.35; 10 μM
Protocol: The assay was performed on hERG channel stably expressed in HEK293 cells. The cells were cultured at 37° C. in a humidified CO2 incubator in the growth medium consisting of DMEM, 10% fetal bovine serum and antibiotics. Prior to the assay, the cells were seeded onto a 12-mm PDL-coated glass coverslip and cultured in a 35-mm Petri dish. After 16 to 40 hours culture, the coverslip was transferred into the chamber of OctaFlow perfusion system (ALA Instrument) and under a constant flow of extracellular solution (140 mM NaCl, 4 mM KCl, 1 mM MgCl2, 2 mM CaCl2, 10 mM HEPES, 10 mM D-glucose, pH 7.35, osmolarity 290). Whole cell patch clamping was performed with a glass micropipette filled with intracellular solution (120 mM KCl, 1.75 mM MgCl2, 5.4 mM CaCl2, 10 mM HEPES, 10 mM EGTA, and 4 mM ATP-K2, pH 7.2, osmolarity 310). Giga-seal was maintained during the test. The voltage control and current measurement were carried out using Axon amplifier 700B, Digidata 1440A and CLAMPEX10 software (Molecular Devices). Whole-cell hERG currents were recorded following the Petroski protocol: the cell was held at −80 mV, and the voltage step jumped from −80 to 30 mV and stay for 2 seconds with a 20-millisecond prepulse at −40 mV. After depolarization, the voltage was decreased to −40 mV and stay for 2 seconds, and returned back to −80 mV. Test compound was applied by quartz capillary tubes tip (200 m inner diameter), and the flow rate was controlled at 2-3 mL/min with OctaFlow perfusion system. Different concentrations of the compound were applied to the cells for 5 minutes and the hERG current was measured three times before, during and after compound treatment. The data were analyzed using Clampfit 10 software (Molecular Devices) to generate IC50 values.

[6] = biological target: CYP2D6 (Homo sapiens (Human), UniProt P10635); experiment: CYP P450 enzyme inhibition in pooled human liver microsomes (dextromethorphan probe); type: in vitro ADME; details: human, pooled human liver microsomes, pH 7.4, probe dextromethorphan, 5 μM; 10 μM; read-out: CYP2D6 Inhibiton at 10 μM
Protocol: Test compound concentration-dependent response studies were performed in triplicate.

[7] = biological target: human NR1/NR2B (Homo sapiens (Human), UniProt Q05586+Q13224); experiment: NR2B antagonist activity: calcium influx (Fluo-4) assay in HEK293 cells; type: cell-based; details: read-out: NR2B IC50
Method in brief: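 HEK293 cells expressing NR1/NR2A or NR1/NR2B, loaded with fluo-4-AM, preincubated 10 min at room temperature with compound in Hanks buffer/0.1% BSA.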

[8] = Table 1.1B, read-out: NR2A IC50

CYP2D6, sequence (P10635 whole entry): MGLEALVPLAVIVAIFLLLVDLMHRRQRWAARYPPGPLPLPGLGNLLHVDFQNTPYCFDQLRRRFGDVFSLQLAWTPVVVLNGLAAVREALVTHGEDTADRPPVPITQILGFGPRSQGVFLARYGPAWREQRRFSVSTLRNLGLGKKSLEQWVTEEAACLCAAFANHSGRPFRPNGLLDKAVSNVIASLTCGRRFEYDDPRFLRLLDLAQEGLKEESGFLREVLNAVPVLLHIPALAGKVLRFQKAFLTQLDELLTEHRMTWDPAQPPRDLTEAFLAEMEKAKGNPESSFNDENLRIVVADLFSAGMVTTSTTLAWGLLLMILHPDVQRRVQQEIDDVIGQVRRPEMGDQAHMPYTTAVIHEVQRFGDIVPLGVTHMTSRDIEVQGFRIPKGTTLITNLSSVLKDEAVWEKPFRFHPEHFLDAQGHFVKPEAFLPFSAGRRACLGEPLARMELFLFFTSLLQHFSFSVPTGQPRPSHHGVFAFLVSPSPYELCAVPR
human NR1/NR2B, sequence (Q13224 27-1484, other chains not shown): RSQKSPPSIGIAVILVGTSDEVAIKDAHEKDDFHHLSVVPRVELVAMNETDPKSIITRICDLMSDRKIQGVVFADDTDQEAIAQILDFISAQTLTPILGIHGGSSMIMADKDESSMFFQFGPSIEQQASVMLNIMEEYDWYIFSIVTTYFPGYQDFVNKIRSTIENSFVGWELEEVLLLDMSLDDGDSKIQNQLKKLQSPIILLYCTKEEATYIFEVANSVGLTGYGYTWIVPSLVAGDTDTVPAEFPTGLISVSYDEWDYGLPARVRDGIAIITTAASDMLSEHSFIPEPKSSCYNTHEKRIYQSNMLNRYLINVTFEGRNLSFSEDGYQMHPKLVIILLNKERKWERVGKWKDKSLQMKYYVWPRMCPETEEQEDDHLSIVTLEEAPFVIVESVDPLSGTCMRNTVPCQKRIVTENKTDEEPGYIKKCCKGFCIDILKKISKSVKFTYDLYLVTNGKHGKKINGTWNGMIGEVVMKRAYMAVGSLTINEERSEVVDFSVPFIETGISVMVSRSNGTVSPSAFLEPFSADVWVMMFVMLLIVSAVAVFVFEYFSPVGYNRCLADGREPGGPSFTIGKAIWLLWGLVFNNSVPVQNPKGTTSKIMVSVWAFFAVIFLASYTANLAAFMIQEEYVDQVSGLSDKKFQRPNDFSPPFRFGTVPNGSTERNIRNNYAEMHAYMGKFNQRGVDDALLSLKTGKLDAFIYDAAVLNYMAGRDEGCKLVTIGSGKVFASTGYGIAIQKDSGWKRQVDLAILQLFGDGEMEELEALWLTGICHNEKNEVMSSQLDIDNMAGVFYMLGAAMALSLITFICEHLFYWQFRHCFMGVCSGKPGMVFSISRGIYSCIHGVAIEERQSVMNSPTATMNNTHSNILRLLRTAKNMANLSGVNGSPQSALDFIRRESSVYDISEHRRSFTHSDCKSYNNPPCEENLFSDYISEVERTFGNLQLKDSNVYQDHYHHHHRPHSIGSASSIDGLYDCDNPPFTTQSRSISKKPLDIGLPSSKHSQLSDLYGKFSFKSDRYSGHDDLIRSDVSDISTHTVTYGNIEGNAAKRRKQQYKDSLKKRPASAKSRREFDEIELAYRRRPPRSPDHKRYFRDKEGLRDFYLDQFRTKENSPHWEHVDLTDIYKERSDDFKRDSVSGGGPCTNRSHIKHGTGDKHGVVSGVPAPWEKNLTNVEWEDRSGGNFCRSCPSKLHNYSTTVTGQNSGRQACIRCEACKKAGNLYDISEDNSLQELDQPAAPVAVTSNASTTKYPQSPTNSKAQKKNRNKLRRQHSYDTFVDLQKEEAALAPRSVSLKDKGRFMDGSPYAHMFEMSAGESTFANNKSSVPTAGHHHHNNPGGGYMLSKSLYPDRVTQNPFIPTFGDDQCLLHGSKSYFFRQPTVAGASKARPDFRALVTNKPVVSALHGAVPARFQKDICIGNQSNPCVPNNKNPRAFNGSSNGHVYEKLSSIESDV
human NR1/NR2A, sequence (Q12879 23-1464, other chains not shown): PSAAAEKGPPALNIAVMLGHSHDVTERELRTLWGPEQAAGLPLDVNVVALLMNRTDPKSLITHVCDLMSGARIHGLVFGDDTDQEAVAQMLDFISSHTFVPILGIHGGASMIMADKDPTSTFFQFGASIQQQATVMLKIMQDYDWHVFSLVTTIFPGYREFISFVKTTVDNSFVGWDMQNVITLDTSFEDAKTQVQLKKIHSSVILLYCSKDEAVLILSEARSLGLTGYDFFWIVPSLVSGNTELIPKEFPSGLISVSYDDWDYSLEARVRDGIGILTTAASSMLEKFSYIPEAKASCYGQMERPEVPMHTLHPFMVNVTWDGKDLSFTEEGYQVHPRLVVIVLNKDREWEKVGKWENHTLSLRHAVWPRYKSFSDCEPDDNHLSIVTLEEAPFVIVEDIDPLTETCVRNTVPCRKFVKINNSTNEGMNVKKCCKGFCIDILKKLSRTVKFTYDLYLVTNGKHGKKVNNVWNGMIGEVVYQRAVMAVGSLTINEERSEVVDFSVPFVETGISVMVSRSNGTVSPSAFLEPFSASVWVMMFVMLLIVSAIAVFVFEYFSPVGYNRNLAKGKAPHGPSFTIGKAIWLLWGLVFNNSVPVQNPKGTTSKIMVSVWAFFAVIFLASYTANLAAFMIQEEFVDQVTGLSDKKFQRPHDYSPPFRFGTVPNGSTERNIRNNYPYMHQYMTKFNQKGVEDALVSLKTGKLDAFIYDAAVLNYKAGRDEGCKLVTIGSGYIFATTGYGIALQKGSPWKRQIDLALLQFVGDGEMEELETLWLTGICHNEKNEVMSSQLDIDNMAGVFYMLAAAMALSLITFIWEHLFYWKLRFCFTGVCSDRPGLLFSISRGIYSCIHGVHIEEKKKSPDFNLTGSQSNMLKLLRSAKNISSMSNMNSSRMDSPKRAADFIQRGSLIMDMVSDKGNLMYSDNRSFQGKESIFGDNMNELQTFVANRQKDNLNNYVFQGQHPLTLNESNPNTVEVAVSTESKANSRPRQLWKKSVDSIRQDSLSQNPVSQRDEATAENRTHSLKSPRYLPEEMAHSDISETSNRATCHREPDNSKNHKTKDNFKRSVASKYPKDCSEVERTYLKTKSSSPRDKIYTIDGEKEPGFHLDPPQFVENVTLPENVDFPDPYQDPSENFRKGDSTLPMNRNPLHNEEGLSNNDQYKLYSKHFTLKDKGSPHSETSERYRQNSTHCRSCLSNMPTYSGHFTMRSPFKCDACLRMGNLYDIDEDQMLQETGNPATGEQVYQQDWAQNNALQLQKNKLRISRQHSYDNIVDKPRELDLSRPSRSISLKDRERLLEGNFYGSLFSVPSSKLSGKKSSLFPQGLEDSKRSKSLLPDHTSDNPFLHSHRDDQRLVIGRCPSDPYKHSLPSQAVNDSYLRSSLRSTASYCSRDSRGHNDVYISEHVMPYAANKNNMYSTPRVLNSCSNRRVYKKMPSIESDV
hERG channel, sequence (Q12809 whole entry): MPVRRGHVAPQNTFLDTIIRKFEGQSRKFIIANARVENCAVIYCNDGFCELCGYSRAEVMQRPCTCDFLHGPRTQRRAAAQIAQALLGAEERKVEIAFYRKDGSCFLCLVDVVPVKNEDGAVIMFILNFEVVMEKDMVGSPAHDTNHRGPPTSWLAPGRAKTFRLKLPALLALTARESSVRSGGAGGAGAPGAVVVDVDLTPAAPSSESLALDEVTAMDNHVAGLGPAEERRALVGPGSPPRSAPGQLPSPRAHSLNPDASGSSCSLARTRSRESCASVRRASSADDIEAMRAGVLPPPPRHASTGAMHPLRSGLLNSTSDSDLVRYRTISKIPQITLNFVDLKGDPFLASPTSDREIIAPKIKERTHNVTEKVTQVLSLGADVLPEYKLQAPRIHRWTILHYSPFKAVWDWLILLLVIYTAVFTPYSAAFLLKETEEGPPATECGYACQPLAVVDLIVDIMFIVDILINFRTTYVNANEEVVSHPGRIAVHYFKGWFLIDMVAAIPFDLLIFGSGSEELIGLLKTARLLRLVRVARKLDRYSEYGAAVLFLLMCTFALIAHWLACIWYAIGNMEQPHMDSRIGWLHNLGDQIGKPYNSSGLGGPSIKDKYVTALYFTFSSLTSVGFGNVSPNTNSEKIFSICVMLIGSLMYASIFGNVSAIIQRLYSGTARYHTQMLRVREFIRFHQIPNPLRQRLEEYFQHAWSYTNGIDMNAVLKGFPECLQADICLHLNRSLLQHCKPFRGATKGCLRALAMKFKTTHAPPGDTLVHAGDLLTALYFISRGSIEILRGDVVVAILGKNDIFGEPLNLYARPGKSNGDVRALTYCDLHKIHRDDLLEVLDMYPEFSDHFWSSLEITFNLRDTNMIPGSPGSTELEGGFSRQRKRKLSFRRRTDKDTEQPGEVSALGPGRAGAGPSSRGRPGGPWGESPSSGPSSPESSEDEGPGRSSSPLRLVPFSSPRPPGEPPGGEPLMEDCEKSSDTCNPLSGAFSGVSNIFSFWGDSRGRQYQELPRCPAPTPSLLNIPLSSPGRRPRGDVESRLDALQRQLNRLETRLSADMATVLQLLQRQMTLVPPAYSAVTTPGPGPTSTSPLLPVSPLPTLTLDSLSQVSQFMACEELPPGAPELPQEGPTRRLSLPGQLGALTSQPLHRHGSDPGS

Compound: C[C@@H](CN1CCC(Cc2ccccc2)CC1)[C@@H](O)c1ccc(O)cc1 [Ro25-6981]
- efficacy in the Marble Burying Test [1]: modest efficacy

Compound: CC12CC3CC(C)(C1)CC(N)(C3)C2 [memantine]
- remission [2]: 89%
- response [2]: 100%
- patients who developed adverse effects [3]: seven out of 18

Compound: Cc1ccc(COC(=O)N2CC[C@H](CNc3nc4ccccn4n3)C(F)(F)C2)cc1 [E1-9.2^B′]
- pIC50 [4, 8]: < 5.00
- inhibition at 5 min, 10 µM [5]: 38%
- inhibition at 10 min, 10 µM [6]: 14%

Compound: CCc1ccc(COC(=O)N2CC[C@H](CNc3nccn4cnnc34)C(F)(F)C2)cc1 [E1-1.5^B′]
- pIC50 ([7]; Table 1.1B): 8.02
- pIC50 ([7]; Table 1.3B): 8.02
- pIC50 ([7]; Table 1.4B): 8.02
- pIC50 [4, 8]: < 5.00
- inhibition at 5 min, 10 µM [5]: 46%
- inhibition at 10 min, 10 µM [6]: 28%

Compound: Cc1ccc(COC(=O)N2CC[C@H](CNc3ncc4cn[nH]c4n3)C(F)(F)C2)cc1 [E1-8.2^B′]
- pIC50 [4, 8]: < 5.00
- inhibition at 5 min, 10 µM [5]: 57%
- inhibition at 10 min, 10 µM [6]: 83%

Compound: FC(F)(CN1CCC(Nc2ncnc3[nH]ccc23)CC1)c1ccccn1 [C-1^A′]
- pIC50 [4]: < 5.00
